Results on 42 compounds are retold here after patent publication US11116760B2 (Gilead Sciences, Inc., priority 2018, dated 2021).

α4β7 integrin, sequence (P13612 34-1032): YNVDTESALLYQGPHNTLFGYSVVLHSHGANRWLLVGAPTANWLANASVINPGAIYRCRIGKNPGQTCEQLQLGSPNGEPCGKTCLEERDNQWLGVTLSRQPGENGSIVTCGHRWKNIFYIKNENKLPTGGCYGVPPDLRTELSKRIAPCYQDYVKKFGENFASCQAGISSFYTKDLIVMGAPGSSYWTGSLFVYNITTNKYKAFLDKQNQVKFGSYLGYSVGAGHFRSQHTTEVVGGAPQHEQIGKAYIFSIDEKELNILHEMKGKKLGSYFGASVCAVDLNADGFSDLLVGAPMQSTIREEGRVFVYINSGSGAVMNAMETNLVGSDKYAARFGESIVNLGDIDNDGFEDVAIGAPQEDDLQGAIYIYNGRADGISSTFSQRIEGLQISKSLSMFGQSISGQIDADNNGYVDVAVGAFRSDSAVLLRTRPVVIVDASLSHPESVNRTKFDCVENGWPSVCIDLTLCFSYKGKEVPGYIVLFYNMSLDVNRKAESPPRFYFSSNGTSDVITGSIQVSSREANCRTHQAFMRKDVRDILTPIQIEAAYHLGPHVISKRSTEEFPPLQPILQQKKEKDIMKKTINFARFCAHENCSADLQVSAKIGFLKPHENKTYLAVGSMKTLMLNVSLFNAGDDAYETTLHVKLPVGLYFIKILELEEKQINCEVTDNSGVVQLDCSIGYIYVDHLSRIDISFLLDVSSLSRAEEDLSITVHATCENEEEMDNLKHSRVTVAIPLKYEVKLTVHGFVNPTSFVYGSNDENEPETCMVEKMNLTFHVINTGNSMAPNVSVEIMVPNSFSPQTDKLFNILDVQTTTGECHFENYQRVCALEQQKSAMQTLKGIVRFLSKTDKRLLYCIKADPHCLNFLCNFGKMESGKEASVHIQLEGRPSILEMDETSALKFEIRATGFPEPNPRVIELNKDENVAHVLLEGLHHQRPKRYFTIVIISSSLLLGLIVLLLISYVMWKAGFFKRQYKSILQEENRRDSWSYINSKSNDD
α4β7 integrin, sequence (P26010 20-798): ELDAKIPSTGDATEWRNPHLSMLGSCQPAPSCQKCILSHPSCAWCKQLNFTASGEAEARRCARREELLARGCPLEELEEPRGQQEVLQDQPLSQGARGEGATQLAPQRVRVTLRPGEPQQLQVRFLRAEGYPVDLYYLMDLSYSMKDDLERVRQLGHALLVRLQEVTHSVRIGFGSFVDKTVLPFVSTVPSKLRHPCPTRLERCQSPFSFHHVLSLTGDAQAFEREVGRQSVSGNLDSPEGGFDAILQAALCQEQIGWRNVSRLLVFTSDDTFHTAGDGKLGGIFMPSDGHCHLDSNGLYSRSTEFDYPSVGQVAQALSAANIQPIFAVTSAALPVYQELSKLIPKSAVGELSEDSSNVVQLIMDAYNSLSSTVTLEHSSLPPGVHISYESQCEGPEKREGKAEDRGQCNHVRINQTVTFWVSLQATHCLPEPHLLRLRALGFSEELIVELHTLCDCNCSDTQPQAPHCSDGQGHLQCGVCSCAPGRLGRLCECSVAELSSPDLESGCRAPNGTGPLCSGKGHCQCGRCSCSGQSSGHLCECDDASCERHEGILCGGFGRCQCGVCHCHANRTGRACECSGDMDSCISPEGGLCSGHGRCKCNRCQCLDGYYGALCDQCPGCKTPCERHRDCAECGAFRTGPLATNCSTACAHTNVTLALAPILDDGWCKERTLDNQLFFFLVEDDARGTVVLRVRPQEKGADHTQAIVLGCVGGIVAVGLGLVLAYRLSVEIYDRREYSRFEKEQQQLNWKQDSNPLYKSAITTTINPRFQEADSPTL

One test concerns the target α4β7 integrin (Homo sapiens (Human), UniProt P13612+P26010). Briefly: α4β7 Integrin Cell Capture Assay. The class given is cell-based. As to conditions: RPMI8866 cells captured on MadCAM-1 extracellular domain-coated plate.
Compound `Cc1cc(N2CCOC[C@H]2C(F)(F)F)cc(F)c1C(=O)N[C@@H](Cc1ccc(-n2c(=O)c3ccncc3n(C)c2=O)c2ncccc12)C(=O)O` [Example 409] had an EC50 of 0.401 nM.
`Cc1cc(C(F)(F)F)c(-c2ccc(C[C@H](NC(=O)c3c(F)cc(N4CCOC[C@@H]4C(F)(F)F)cc3C(C)C)C(=O)O)c3cccnc23)c(=O)n1C` [Example 470]: a half-maximal effect (EC50) was put at 0.181 nM. This EC50 is about 2.2-fold lower than that of the compound before.
The same measure, in the same setting: under `CC[C@@H](Nc1cc(F)c(C(=O)N[C@@H](Cc2ccc(-c3nc(C)c(C)n(C)c3=O)c3ncccc23)C(=O)O)c(F)c1F)C(F)(F)F` [Example 456] stands 0.248 nM.
With `Cc1cc(C(F)(F)F)c(-c2ccc(C[C@H](NC(=O)c3c(F)cc(N4CCN(C)C[C@@H]4C(F)(F)F)cc3F)C(=O)O)c3cccnc23)c(=O)n1C` (atropisomer, axis not shown) [Example 486], a half-maximal effect (EC50) was put at 1.31 nM.
As for `Cc1cc(N2CCOC[C@@H]2C(F)(F)F)cc(F)c1C(=O)N[C@@H](Cc1ccc(-c2ccc(C)n(C)c2=O)c2ncccc12)C(=O)O` [Example 444], the concentration for a half-maximal effect (EC50) stood at 0.161 nM.
Take `Cc1cc(N2CCOC[C@@H]2C(F)(F)F)cc(F)c1C(=O)N[C@@H](Cc1ccc(-c2cc3cnccc3n(C)c2=O)c2ncccc12)C(=O)O` [Example 469]: the midpoint of the response, the EC50, lay at 0.103 nM.
As for `Cc1cnc(-c2c(F)cc(C[C@H](NC(=O)c3c(C)cc(N4CCOC[C@@H]4C(F)(F)F)cc3F)C(=O)O)c3cccnc23)nc1C` [Example 465], the EC50 was found to be 1.53 nM.
In the case of `Cc1cc(N2CCOC[C@@H]2C(F)(F)F)cc(F)c1C(=O)N[C@@H](Cc1ccc(-c2c(C)nc(C)n(C)c2=O)c2ncccc12)C(=O)O` [Example 460], the EC50 came to 0.15 nM.
Consider `Cc1cc(N2CCOC[C@@H]2C(F)(F)F)cc(F)c1C(=O)N[C@@H](Cc1ccc(-c2c(C(F)(F)F)cc(C)n(C)c2=O)c2ncccc12)C(=O)O` (atropisomer, axis not shown) [Example 461], for which the response was half-maximal at 0.093 nM (EC50). Compared with the last compound, the EC50 is about 1.6-fold lower.

Still in this test, the particulars now being: Table 1; capture of α4β7 expressing RPM18866 cells on MadCAM-1 extracellular domain-coated plate.
`CCOCc1cc(OC)c(-c2ccc(C[C@H](NC(=O)c3c(F)cccc3F)C(=O)O)c3cc(C#N)cnc23)c(OC)c1` [Example 36, (S)-3-(3-cyano-8-(4-(ethoxymethyl)-2,6-dimethoxyphenyl)quinolin-5-yl)-2-(2,6-difluorobenzamido)propanoic acid] gave an EC50 of 21 nM.
In the case of `N#Cc1ccc(-c2ccc(C[C@H](NC(=O)c3c(F)ccc(OC(F)F)c3F)C(=O)O)c3cccnc23)c(Cl)c1` [Example 16, (S)-3-(8-(2-chloro-4-cyanophenyl)quinolin-5-yl)-2-(3-(difluoromethoxy)-2,6-difluorobenzamido)propanoic acid], the EC50 was found to be 67.4 nM.
On the same count and under the same terms, under `CC(O)Cc1cc(F)c(C(=O)N[C@@H](Cc2ccc(-c3ccc(C#N)cc3Cl)c3ncccc23)C(=O)O)c(F)c1` (stereo partly drawn) [Example 24, (2S)-3-(8-(2-chloro-4-cyanophenyl)quinolin-5-yl)-2-(2,6-difluoro-4-(2-hydroxypropyl)benzamido)propanoic acid] stands 56.7 nM; under `N#Cc1ccc(-c2ccc(C[C@H](NC(=O)c3c(F)cc(N[C@@H](C4CC4)C(F)(F)F)cc3F)C(=O)O)c3cccnc23)c(Cl)c1` [Example 148], 60.6 nM.
The compound `N#Cc1ccc(-c2ccc(C[C@H](NC(=O)c3c(Cl)cc(F)cc3Cl)C(=O)O)c3cccnc23)c(Cl)c1` [Example 22, (S)-3-(8-(2-chloro-4-cyanophenyl)quinolin-5-yl)-2-(2,6-dichloro-4-fluorobenzamido)propanoic acid] came in with an EC50 of 48.5 nM.
In turn, `N#Cc1ccc(-c2ccc(C[C@H](NC(=O)c3c(F)cc(N4CCOCC4C(F)(F)F)cc3F)C(=O)O)c3cccnc23)c(Cl)c1` (stereo partly drawn) [Example 81] came in with a 50% effective concentration (EC50) of 6 nM.
On the same count and under the same terms, under `CC[C@@H](Nc1cc(F)c(C(=O)N[C@@H](Cc2ccc(-c3c(C(F)(F)F)c4c(n(C)c3=O)CCC4)c3ncccc23)C(=O)O)c(F)c1)C(F)(F)F` [Example 126, (S)-2-(2,6-difluoro-4-(((R)-1,1,1-trifluorobutan-2-yl)amino)benzamido)-3-(8-(1-methyl-2-oxo-4-(trifluoromethyl)-2,5,6,7-tetrahydro-1H-cyclopenta[b]pyridin-3-yl)quinolin-5-yl)propanoic acid] stands 0.6 nM; under `CCOCc1cc(OC)c(-c2ccc(C[C@H](NC(=O)c3c(F)cccc3F)C(=O)O)c3ccc(C)nc23)c(OC)c1` [Example 31, (S)-2-(2,6-difluorobenzamido)-3-(8-(4-(ethoxymethyl)-2,6-dimethoxyphenyl)-2-methylquinolin-5-yl)propanoic acid], 19.3 nM.
`O=C(N[C@@H](Cc1ccc(-c2c(Cl)cc(F)cc2Cl)c2ncccc12)C(=O)O)c1c(F)cccc1F` [Example 19, (S)-3-(8-(2,6-dichloro-4-fluorophenyl)quinolin-5-yl)-2-(2,6-difluorobenzamido)propanoic acid] had an EC50 of 50 nM.
In turn, `N#Cc1ccc(-c2ccc(C[C@H](NC(=O)c3c(F)cc(NC(C(F)(F)F)C(F)(F)F)cc3F)C(=O)O)c3cccnc23)c(Cl)c1` [Example 88, (S)-3-(8-(2-chloro-4-cyanophenyl)quinolin-5-yl)-2-(2,6-difluoro-4-((1,1,1,3,3,3-hexafluoropropan-2-yl)amino)benzamido)propanoic acid] registered an EC50 of 8.2 nM.
Turning to `CCOCc1cc(OC)c(-c2ccc(C[C@H](NC(=O)c3c(F)cc(C(N)=O)cc3F)C(=O)O)c3cccnc23)c(OC)c1` [Example 43, (S)-2-(4-carbamoyl-2,6-difluorobenzamido)-3-(8-(4-(ethoxymethyl)-2,6-dimethoxyphenyl)quinolin-5-yl)propanoic acid], the EC50 came to 4.6 nM.
In the case of `Cc1noc(C)c1-c1ccc(C[C@H](NC(=O)c2c(F)cc(NS(=O)(=O)c3ccc(-c4ccnc(F)c4)cc3)cc2F)C(=O)O)c2cccnc12` [Example 55, (S)-2-(2,6-difluoro-4-((4-(2-fluoropyridin-4-yl)phenyl)sulfonamido)benzamido)-3-(8-(3,5-dimethylisoxazol-4-yl)quinolin-5-yl)propanoic acid], the EC50 was 27.4 nM. Against the preceding compound, the EC50 is about 6-fold higher.

The same test, now with this note: Table 2; capture of α4β7 expressing RPM18866 cells on MadCAM-1 extracellular domain-coated plate.
Consider `Cc1cc(C(F)(F)F)c(-c2ccc(C[C@H](NC(=O)c3c(F)cc(N4CCCC[C@@H]4C(F)(F)F)cc3F)C(=O)O)c3cccnc23)c(=O)n1C` (atropisomer, axis not shown) [Example 230], for which the concentration for a half-maximal effect (EC50) came to 2.2 nM.
In the case of `CC(C)(O)[C@H](F)CNC(=O)c1cc(F)c(C(=O)N[C@@H](Cc2ccc(-c3ccc(C#N)cc3Cl)c3ncccc23)C(=O)O)c(F)c1` [Example 322], the concentration for a half-maximal effect (EC50) is 16.2 nM.
In turn, `N#Cc1ccc(-c2ccc(C[C@H](NC(=O)c3c(Cl)cc4[nH]c(C5CC5)cc4c3Cl)C(=O)O)c3cccnc23)c(Cl)c1` [Example 225] yielded a concentration for a half-maximal effect (EC50) of 53.7 nM.
The same measure, in the same setting: the same measure for `Cc1ccnc(-c2ccc(C[C@H](NC(=O)c3c(F)cc(N4CCOC[C@@H]4C(F)(F)F)cc3F)C(=O)O)c3cccnc23)c1C` [Example 271]: 4.5 nM.
In the case of `N#Cc1ccc(-c2ccc(C[C@H](NC(=O)c3c(F)cccc3OC(F)F)C(=O)O)c3cccnc23)c(Cl)c1` [Example 222], the EC50 turned out to be 48.3 nM.
Still for that read-out and setting: the same measure for `N#Cc1cc(Cl)c(-c2ccc(C[C@H](NC(=O)c3c(Cl)cccc3Cl)C(=O)O)c3cc(F)cnc23)c(Cl)c1` [Example 304]: 9.6 nM.
As for `CC[C@@H](Nc1cc(F)c(C(=O)N[C@H](Cc2ccc(-c3c(C(F)(F)F)cc(C)n(C)c3=O)c3ncccc23)C(=O)O)c(F)c1)C(F)(F)F` [Example 253], the EC50 was determined as 3.2 nM.
The compound `CC[C@@H](Nc1cc(F)c(C(=O)N[C@@H](Cc2ccc(-c3nc(C)cc(OC)c3C(F)(F)F)c3ncccc23)C(=O)O)c(F)c1)C(F)(F)F` [Example 275] registered a concentration giving a half-maximal response (EC50) of 4.8 nM.
With `N#Cc1ccc(-c2ccc(C[C@H](NC(=O)c3c(Cl)cc4cc(C5CC5)[nH]c4c3Cl)C(=O)O)c3cccnc23)c(Cl)c1` [Example 228], a half-maximal response (EC50) required 57.8 nM.
The compound `COc1cc(F)c(C(F)(F)F)cc1-c1ccc(C[C@H](NC(=O)c2c(F)cccc2F)C(=O)O)c2cccnc12` [Example 215] gave an EC50 of 29 nM.
Take `CC[C@@H](Nc1cc(F)c(C(=O)N[C@@H](Cc2ccc(-c3nc(C)ccc3Cl)c3ncccc23)C(=O)O)c(F)c1)C(F)(F)F` [Example 321]: the midpoint of the response, the EC50, lay at 15.8 nM. Compared with the last compound, the EC50 is about 1.8-fold lower.
Turning to `CC[C@@H](Nc1cc(F)c(C(=O)N[C@@H](Cc2ccc(-c3cc4ccccc4n(C)c3=O)c3ncccc23)C(=O)O)c(F)c1)C(F)(F)F` [Example 182], the EC50 came out at 0.9 nM. This EC50 lies about 18-fold lower than the previous one.
Still for that read-out and setting: under `N#Cc1ccc(-c2ccc(C[C@H](NC(=O)c3c(F)cc(NC4(C(F)F)CC4)cc3F)C(=O)O)c3cccnc23)c(Cl)c1` [Example 284] stands 45.9 nM; under `Cc1c(-c2ccc(C[C@H](NC(=O)c3c(F)cc(CS(=O)(=O)c4ccccc4)cc3F)C(=O)O)c3cccnc23)c(=O)n(C)c(=O)n1C` [Example 203], 1.6 nM; under `CC[C@@H](Nc1cc(F)c(C(=O)N[C@@H](Cc2ccc(-c3nc(C)c(C)c(C)c3C(F)(F)F)c3ncccc23)C(=O)O)c(F)c1)C(F)(F)F` [Example 236], 2.6 nM.
Turning to `Cc1cc(C(F)(F)F)c(-c2ccc(C[C@H](NC(=O)c3c(F)cc(N4CCOC[C@@H]4C(F)(F)F)cc3F)C(=O)O)c3cc(N(C)C)cnc23)c(=O)n1C` [Example 281], a half-maximal response (EC50) required 5.5 nM.
For the compound `Cc1cc(C(F)(F)F)c(-c2ccc(C[C@H](NC(=O)c3c(F)cc(N4CC[C@@H]4C(F)(F)F)cc3F)C(=O)O)c3cccnc23)c(=O)n1C` [Example 244], the EC50 came out at 2.9 nM.
Take `Cc1cnc(-c2ccc(C[C@H](NC(=O)c3c(F)cc(N4CCOC[C@@H]4C(F)(F)F)cc3F)C(=O)O)c3cccnc23)c(N(C)C)c1` [Example 277]: the concentration giving a half-maximal response (EC50) was 5.2 nM.
Compound `CC[C@@H](Nc1cc(F)c(C(=O)N[C@@H](Cc2ccc(-c3c(C(F)(F)F)cc(C)n(C)c3=O)c3nc(C)ccc23)C(=O)O)c(F)c1)C(F)(F)F` [Example 183] displayed an EC50 of 0.9 nM. This EC50 lies about 5.8-fold lower than the previous one.
In turn, `CC[C@@H](Nc1cc(F)c(C(=O)N[C@@H](Cc2ccc(-c3cc(N(C)C)c(C)n(C)c3=O)c3ncccc23)C(=O)O)c(F)c1)C(F)(F)F` [Example 268] registered a concentration for a half-maximal effect (EC50) of 4.3 nM.
On to `O=C(N[C@@H](Cc1ccc(Nc2nccc3ccncc23)c2ncccc12)C(=O)O)c1c(Cl)cccc1Cl` [Example 336], for which a half-maximal effect (EC50) was put at 26.1 nM.

The EC50 is the concentration giving half of the maximal effect. A higher EC50 goes with a need for much substance.
